# From US20220387375A1, “TRPV1 ACTIVATION-MODULATING COMPLEX MIXTURES OF CANNABINOIDS AND/OR TERPENES” (GBS Global Biopharma, Inc., priority 2018, published 2022)
# “Also recorded” adds a separate entry of the source. Like-named read-outs stand apart in the source and are kept apart here.
# What was measured:
# TRPV1 = molecular target: T1, TRPV1 (Rattus norvegicus, UniProt O35433); assay: Whole-cell patch clamp of TRPV1 currents in HEK293 cells overexpressing TRPV1 (HEK293-V1); type: cell-based; settings: for inward current induced: cannabinoid at 50 (FIGS. 3A, 4A, 6A, 7A), applied at data point 60; for time course of induced TRPV1 current (sustained or inactivating): cannabinoid at 50, 5 μM myrcene or 1 μM capsaicin; for current development and inactivation: constant external calcium, internal Ca2+ 0 nM, 180 nM, 620 nM, FCa (FIGS. 23, 24); for Max I amplitude: 120 s, Ca 1 mM external, unbuffered internal calcium; for attainment of the pore-dilated state: 50 μM, induction time 25 hours (FIGS. 37-40C)
# T1 construct: FLAG; expressed in transfected cells
# T1 sequence (O35433 whole entry): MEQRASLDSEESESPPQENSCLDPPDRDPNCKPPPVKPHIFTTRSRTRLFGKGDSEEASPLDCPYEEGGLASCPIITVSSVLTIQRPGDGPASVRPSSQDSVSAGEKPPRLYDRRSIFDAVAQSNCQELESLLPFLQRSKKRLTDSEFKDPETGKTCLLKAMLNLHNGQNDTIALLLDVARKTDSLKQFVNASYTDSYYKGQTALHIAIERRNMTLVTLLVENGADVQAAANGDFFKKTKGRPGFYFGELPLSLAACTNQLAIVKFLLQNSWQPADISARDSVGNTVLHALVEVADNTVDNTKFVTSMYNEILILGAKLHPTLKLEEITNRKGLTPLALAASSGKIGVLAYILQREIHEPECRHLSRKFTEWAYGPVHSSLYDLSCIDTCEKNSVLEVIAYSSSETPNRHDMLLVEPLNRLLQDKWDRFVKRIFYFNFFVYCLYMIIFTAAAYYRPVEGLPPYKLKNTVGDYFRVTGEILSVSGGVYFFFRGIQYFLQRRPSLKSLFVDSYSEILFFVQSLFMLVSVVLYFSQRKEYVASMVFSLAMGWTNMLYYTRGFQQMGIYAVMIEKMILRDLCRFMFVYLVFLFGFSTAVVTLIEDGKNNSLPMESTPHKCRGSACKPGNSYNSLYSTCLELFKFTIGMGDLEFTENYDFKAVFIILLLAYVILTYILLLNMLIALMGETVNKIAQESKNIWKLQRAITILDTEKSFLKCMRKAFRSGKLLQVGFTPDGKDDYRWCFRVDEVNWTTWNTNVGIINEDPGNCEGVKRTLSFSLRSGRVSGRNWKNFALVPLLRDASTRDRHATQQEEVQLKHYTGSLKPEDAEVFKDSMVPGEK
# Procedure: HEK TRexTRPV1 were cultured in DMEM, 10% Fetal Bovine Serum, 2 mM Lglutamine, 10 μg/ml Blasticidin (Calbiochem, San Diego Calif.), 400 μg/ml Zeocin (InvivoGen, San Diego Calif.), where indicated transgene expression was induced using 1 μg/ml Tetracycline for 16-24 hrs. Unless otherwise indicated, basal expression of TRPV1 without induction was sufficient for these studies, and comparisons were made to untransfected HEK where needed. HEKTRex293 over-expressing human TRPV2, human TRPA1 and human TRPM8 were obtained from SB Drug Discovery (Glasgow, Scotland) and cultured as described above. The cannabinoids and terpenes were assayed in HEK cells that have been transfected with the TRPV1 ion channel protein. These cells are called HEK293-V1 cells.
# This technique is used to study ionic currents from HEK293-V1. The voltage across the cell membrane is controlled and the ionic currents associated with changes in voltage are measured. A micropipette tip is pulled to a few micrometers in diameter followed by heating the tip to produce a smooth surface that assists in forming a high resistance seal with the cell membrane. To obtain this high resistance seal, the micropipette is pressed against a cell membrane and suction is applied. The membrane then fuses onto the glass surface creating a high resistance in the gigaohm range. This makes it possible to isolate electronically the ionic currents measured across the membrane patch or across the entire cell.
# Patch-clamp experiments were performed in the whole-cell configuration at 21-25° C. Patch pipettes had resistances of 2-3 MΩ. Data was acquired with PatchMaster software (HEKA, Lambrecht, Germany), controlling an EPC-9 amplifier. Voltage ramps of 50 ms spanning the voltage range from −100 to 100 mV were delivered from a holding potential of 0 mV at a rate of 0.5 Hz over a period of 500 ms to 180 seconds (3 minutes). Voltages were corrected for a liquid junction potential of 10 mV. Currents were filtered at 2.9 kHz and digitized at 100 μs intervals. Capacitive currents were determined and corrected before each voltage ramp. The development of currents for a given potential was extracted from individual ramp current records by measuring the current amplitudes at voltages of −80 mV and +80 mV. Data were analyzed with FitMaster (HEKA, Lambrecht, Germany), and IgorPro (WaveMetrics, Lake Oswego, Oreg., USA). Where applicable, statistical errors of averaged data are given as mean±s.e.m with n determinations. The activated current amplitudes are analyzed by nA rather than pA/pF. […] Also the cell size selected for patching was in the 9 -12 pF range.
# For patch-clamp recordings, HEK293 cells were kept in a standard sodium-based external Ringer's solution containing (mM): 140 NaCl, 1 CaCl2, 2 MgCl2, 2.8 KCl, 11 glucose, 10 HEPES-NaOH with a pH of 7.2 and osmolarity of 300 mOsmol. To assess the effects of external Calcium (Ca) on TRPV1 inactivation kinetics, Ca at different levels were tested including 0, 1, and 3 mM. In Experiments with zero external Ca, EGTA 10 mM was added and the Na concentration was lowered to 130 mM to maintain standard osmotic conditions at 300 mOsmol. For rapid external solution application and exchanges we used the SmartSquirt delivery system (Auto-Mate Scientific, San Francisco Calif., USA) that included four cryo tubes allowing for solution exchanges within one patch. This system included a ValveLink TTL interface between the electronic valves and the EPC10 amplifier (HEKA, Lambrecht, Germany). This electronic configuration allowed for programmable solution changes via the PatchMaster software (HEKA, Lambrecht, Germany).
# WT HEK293 = assay: Bulk calcium assay in untransfected WT HEK293; type: cell-based; settings: 10 μM, 1 mM external Ca2+
# [1] = CBD-induced current, internal Ca2+ 0, external Ca2+ 0 mM
# [2] = CBD-induced current, internal Ca2+ 0, external Ca2+ 1 mM
# [3] = CBD-induced current, internal Ca2+ 0, external Ca2+ 3 mM
# [4] = CBD-induced current, internal Ca2+ 180 nM, external Ca2+ 0 mM
# [5] = CBD-induced current, internal Ca2+ 180 nM, external Ca2+ 1 mM
# [6] = CBD-induced current, internal Ca2+ 180 nM, external Ca2+ 3 mM
# [7] = CBD-induced current, internal Ca2+ >620 nM (free Ca2+), external Ca2+ 0 mM
# [8] = CBD-induced current, internal Ca2+ >620 nM (free Ca2+), external Ca2+ 1 mM
# [9] = CBD-induced current, internal Ca2+ >620 nM (free Ca2+), external Ca2+ 3 mM
# [10] = after cannabinoid at 50 (voltage ramp)
# [11] = calculated from Imax per dose, HEK-TRPV1 patch clamp, read-out: EC50 at TRPV1
structure (smiles),measurement,setting,value
"C=C(C)[C@@H]1CCC(C)=C[C@H]1c1c(O)cc(CCCCC)cc1O [CBD, Cannabidiol]",EC50,TRPV1,30 µM
same,type of TRPV1 current recorded,"TRPV1; CBD 30 μM, Ca 0 internally and externally",outwardly rectifying current
same,transition to the pore-dilated state,"TRPV1; CBD up to 150 μM, induction times 0-25 hours, currents about 10 nA",no transition to the pore-dilated state
same,Max rate of activation,"TRPV1; CBD-induced current (30 μM, FIG. 22), internal Ca2+ 0, external Ca2+ 0 mM",1.1% per S
same,Max rate of activation,"TRPV1; CBD-induced current (30 μM, FIG. 22), internal Ca2+ 0, external Ca2+ 1 mM",1.9% per S
same,Max rate of activation,"TRPV1; CBD-induced current (30 μM, FIG. 22), internal Ca2+ 0, external Ca2+ 3 mM",3% per S
same,Rate of inactivation,TRPV1; [1],0.41% per S
same,Time to max amplitude,TRPV1; [1],136 S
same,Rate of inactivation,TRPV1; [2],0.82% per S
same,Time to max amplitude,TRPV1; [2],94 S
same,Rate of inactivation,TRPV1; [3],0.94% per S
same,Time to max amplitude,TRPV1; [3],82 S
same,Max rate of activation,TRPV1; [4],1.6% per S
same,Rate of inactivation,TRPV1; [4],0.67% per S
same,Time to max amplitude,TRPV1; [4],108 S
same,Max rate of activation,TRPV1; [5],1.6% per S
same,Rate of inactivation,TRPV1; [5],0.71% per S
same,Time to max amplitude,TRPV1; [5],116 S
same,Max rate of activation,TRPV1; [6],2.4% per S
same,Rate of inactivation,TRPV1; [6],0.72% per S
same,Time to max amplitude,TRPV1; [6],92 S
same,Max rate of activation,TRPV1; [7],0.83% per S
same,Rate of inactivation,TRPV1; [7],0.49% per S
same,Time to max amplitude,TRPV1; [7],160 S
same,Max rate of activation,TRPV1; [8],1.5% per S
same,Rate of inactivation,TRPV1; [8],1.1% per S
same,Time to max amplitude,TRPV1; [8],120 S
same,Max rate of activation,TRPV1; [9],2.7% per S
same,Rate of inactivation,TRPV1; [9],1% per S
same,Time to max amplitude,TRPV1; [9],88 S
same,IV relationship / TRPV1 channel state,TRPV1; [10],outwardly-rectifying IV curve consistent with un-dilated TRPV1 (state 1)
same,inward current induced,TRPV1,4-6 nA
same,time course of induced TRPV1 current (sustained or inactivating),TRPV1,sustained
same,current development and inactivation,TRPV1,"gradual current development, which inactivated only when internal calcium is buffered above zero"
same,Rate of inactivation,TRPV1; dose 10 micromolar,0 dpsec^−1
same,Time to max,TRPV1; dose 10 micromolar,178 s
same,Max I amplitude,TRPV1; dose 10 micromolar,0.8 nA
same,Rate of inactivation,TRPV1; dose 30 micromolar,0 dpsec^−1
same,Time to max,TRPV1; dose 30 micromolar,180 s
same,Max I amplitude,TRPV1; dose 30 micromolar,2.2 nA
same,Rate of inactivation,TRPV1; dose 50 micromolar,.02 dpsec^−1
same,Time to max,TRPV1; dose 50 micromolar,130 s
same,Max I amplitude,TRPV1; dose 50 micromolar,1.6 nA
same,Rate of inactivation,TRPV1; dose 150 micromolar,.042 dpsec^−1
same,Time to max,TRPV1; dose 150 micromolar,96 s
same,Max I amplitude,TRPV1; dose 150 micromolar,3.5 nA
"C=C(C)[C@@H]1CCC(C)=C[C@H]1c1c(O)cc(CCC)cc1O [CBDV, Cannabidivarin]",attainment of the pore-dilated state,TRPV1,lack of attainment of the pore-dilated state
same,IV relationship / TRPV1 channel state,TRPV1; [10],outwardly-rectifying IV curve consistent with un-dilated TRPV1 (state 1)
same,EC50,TRPV1; [11],56 µM
same,inward current induced,TRPV1,2-3 nA
same,time course of induced TRPV1 current (sustained or inactivating),TRPV1,sustained
same,Rate of inactivation,TRPV1; dose 10 micromolar,0 dpsec^−1
same,Time to max,TRPV1; dose 10 micromolar,148 s
same,Max I amplitude,TRPV1; dose 10 micromolar,0.5 nA
same,Rate of inactivation,TRPV1; dose 30 micromolar,.013 dpsec^−1
same,Time to max,TRPV1; dose 30 micromolar,136 s
same,Max I amplitude,TRPV1; dose 30 micromolar,1.5 nA
same,Rate of inactivation,TRPV1; dose 50 micromolar,.009 dpsec^−1
same,Time to max,TRPV1; dose 50 micromolar,82 s
same,Max I amplitude,TRPV1; dose 50 micromolar,0.9 nA
same,Rate of inactivation,TRPV1; dose 150 micromolar,.14 dpsec^−1
same,Time to max,TRPV1; dose 150 micromolar,62 s
same,Max I amplitude,TRPV1; dose 150 micromolar,3.9 nA
same,calcium response of WT HEK293,WT HEK293,responding slightly
"CCCCCc1cc(O)c(C/C=C(\C)CCC=C(C)C)c(O)c1 [CBG, Cannabigerol]",attainment of the pore-dilated state,TRPV1,lack of attainment of the pore-dilated state
same,IV relationship / TRPV1 channel state,TRPV1; [10],outwardly-rectifying IV curve consistent with un-dilated TRPV1 (state 1)
same,EC50,TRPV1; [11],19 µM
same,inward current induced,TRPV1,4-5 nA
same,time course of induced TRPV1 current (sustained or inactivating),TRPV1,sustained
same,Rate of inactivation,TRPV1; dose 10 micromolar,0 dpsec^−1
same,Time to max,TRPV1; dose 10 micromolar,120 s
same,Max I amplitude,TRPV1; dose 10 micromolar,0.2 nA
same,Rate of inactivation,TRPV1; dose 30 micromolar,.007 dpsec^−1
same,Time to max,TRPV1; dose 30 micromolar,94 s
same,Max I amplitude,TRPV1; dose 30 micromolar,0.6 nA
same,Rate of inactivation,TRPV1; dose 50 micromolar,.008 dpsec^−1
same,Time to max,TRPV1; dose 50 micromolar,96 s
same,Max I amplitude,TRPV1; dose 50 micromolar,0.7 nA
same,Rate of inactivation,TRPV1; dose 150 micromolar,.014 dpsec^−1
same,Time to max,TRPV1; dose 150 micromolar,92 s
same,Max I amplitude,TRPV1; dose 150 micromolar,0.9 nA
"CCCCCc1cc(O)c2c(c1)OC(C)(C)c1ccc(C)cc1-2 [CBN, Cannabinol]",EC50,TRPV1,36 µM
same,inward and outward current magnitude compared to 50 μM CBN,TRPV1; 10 μM CBN,greater inward and outward current magnitude
same,IV relationship / TRPV1 channel state,TRPV1; after 10 μM CBN,becomes more linear; also recorded: partial state transition from state 1 to state 2
same,IV relationship / TRPV1 channel state,TRPV1; [10],outwardly-rectifying IV curve consistent with un-dilated TRPV1 (state 1)
same,inward current induced,TRPV1,0.5-2 nA
same,time course of induced TRPV1 current (sustained or inactivating),TRPV1,rapidly inactivating
same,current development and inactivation,TRPV1,"activated quickly, but rapidly inactivated with a slower kinetic profile"
same,Rate of inactivation,TRPV1; dose 10 micromolar,0 dpsec^−1
same,Time to max,TRPV1; dose 10 micromolar,174 s
same,Max I amplitude,TRPV1; dose 10 micromolar,0.4 nA
same,Rate of inactivation,TRPV1; dose 30 micromolar,0 dpsec^−1
same,Time to max,TRPV1; dose 30 micromolar,176 s
same,Max I amplitude,TRPV1; dose 30 micromolar,0.6 nA
same,Rate of inactivation,TRPV1; dose 50 micromolar,.010 dpsec^−1
same,Time to max,TRPV1; dose 50 micromolar,120 s
same,Max I amplitude,TRPV1; dose 50 micromolar,1.5 nA
same,Rate of inactivation,TRPV1; dose 150 micromolar,.019 dpsec^−1
same,Time to max,TRPV1; dose 150 micromolar,82 s
same,Max I amplitude,TRPV1; dose 150 micromolar,1.8 nA
